Test [1] has as its system Mus musculus. Kind of test: Anticonvulsant activity in ip dosed albino CF1 mouse assessed as protection against pentylenetetrazole-induced clonic convulsions. It counts as functional.
The test system of test [2] is Mus musculus. Kind of test: Hypothermic activity in ip dosed albino CF1 mouse assessed as effect on body temperature measured after 45 mins. As to conditions: 0.75 h. The class given is functional.
For test [3], the system named is Mus musculus. Kind of test: Inhibition of apomorphine-induced cage climbing in ip dosed albino CF1 mouse compound administered prior to challenge measured for 5 mins after 5 mins of challenge. The class given is functional.
Test [4] deals with Mus musculus. Kind of test: Anticonvulsant activity in ip dosed albino CF1 mouse assessed as inhibition of bicucullin-induced tonic extensor convulsions. It counts as functional.
For test [5], the system named is Mus musculus. The test can be described thus: […] activity in ip dosed albino CF1 mouse assessed as potentiation of gamma-butyrolactone-induced sleep. It counts as functional.
Test [6] concerns Mus musculus. The test can be described thus: Reduction of hypoxic stress in ip dosed albino CF1 mouse assessed as prolongation of hypoxic survival time. It counts as functional.
For test [7], the system named is Mus musculus. Kind of test: Inhibition of amphetamine aggregation toxicity in ip dosed albino CF1 mouse compound administered 1 hr prior to challenge measured after 2 hrs. It counts as functional.
Test [8] has as its system Mus musculus. Kind of test: Potentiation of yohimbine toxicity in ip dosed aggregated albino CF1 mouse. It counts as organism-based.
The test system of test [9] is Mus musculus. Kind of test: Inhibition of oxotremorine-induced hypothermia in ip dosed albino CF1 mouse. It counts as functional.
The subject of test [10] is Mus musculus. The test can be described thus: Potentiation of apomorphine-induced gnawing in ip dosed albino CF1 mouse. It counts as organism-based.

As for `Clc1ccc2c(c1)C(c1ccccc1)=NCc1nnc(Br)n1-2`, the ED50 – broadly, the midpoint of the dose-response relation – in [1] was 2.3 mg/kg; in test [2], more than 50 mg/kg; in test [3] it was more than 50 mg/kg; in [4], 3 mg/kg; in test [5] it was 2 mg/kg; in test [6], 6 mg/kg. The 50% effective dose (ED50) in test [7], in test [8], in test [9] and in test [10] was more than 50 mg/kg each time.

For `Clc1ccc2c(c1)C(c1ccccc1)=NCc1nnc(N3CCOCC3)n1-2`, the ED50 was 2.6 mg/kg in test [1]; 7 mg/kg in test [2]; 40 mg/kg in test [3]; 3.1 mg/kg in [4]; 4.4 mg/kg in test [5]; more than 50 mg/kg in [6]. Besides, the median effective dose (ED50) was more than 50 mg/kg in test [7], more than 50 mg/kg in [8], 35.4 mg/kg in test [9] and 35.4 mg/kg in [10].

Turning to `Sc1nnc2n1-c1ccc(Cl)cc1C(c1ccccc1)=NC2`, the ED50 in test [1] is 2.3 mg/kg; in [2], 9 mg/kg; in test [3], more than 50 mg/kg; in [4] it was 3 mg/kg; in test [5], 0.8 mg/kg; in test [6], 9 mg/kg. Besides, the 50% effective dose (ED50) in [7], in test [8], in [9] and in [10] was more than 50 mg/kg in each case.

Consider `CSc1nnc2n1-c1ccc(Cl)cc1C(c1ccccc1)=NC2`, for which the 50% effective dose (ED50) in test [1] was 8 mg/kg; in test [2] it was 10 mg/kg; in [3] it was more than 50 mg/kg; in test [4], 10 mg/kg; in [5] it was 0.8 mg/kg; in [6], 10 mg/kg. The median effective dose (ED50) in test [7], in test [8], in test [9] and in test [10] was more than 50 mg/kg in each case.

Regarding `CN(C)C(=O)Cc1nnc2n1-c1ccc(Cl)cc1C(c1ccccc1)=NC2`, the ED50 in test [1] was 5.6 mg/kg; in [2] it was more than 50 mg/kg; in test [3] it was more than 50 mg/kg; in test [4], 40 mg/kg; in test [5], 10 mg/kg; in test [6], more than 50 mg/kg. Further, the ED50 in test [7], in test [8], in test [9] and in test [10] was more than 50 mg/kg each time.

In the case of `OCCc1nnc2n1-c1ccc(Cl)cc1C(c1ccccc1)=NC2`, the ED50 in [1] was 4 mg/kg; in test [2], 30 mg/kg; in [3], more than 50 mg/kg; in [4], more than 50 mg/kg; in [5] it was more than 50 mg/kg; in test [6], 4 mg/kg. Also, the 50% effective dose (ED50) in test [7], in [8], in test [9] and in test [10] was more than 50 mg/kg in each case.

For `CC1N=C(c2ccccc2)c2cc(Cl)ccc2-n2c(Br)nnc21` (stereo not given), the ED50 in [1] is 3.7 mg/kg; in test [2] it was more than 50 mg/kg; in test [3], more than 50 mg/kg; in [4] it was 1.9 mg/kg; in [5] it was 3.1 mg/kg; in test [6], more than 50 mg/kg. The ED50 in test [7], in test [8], in [9] and in test [10] was more than 50 mg/kg throughout.

In the case of `CC1N=C(c2ccccc2)c2cc(Cl)ccc2-n2c1nnc2N1CCN(C)CC1` (stereo not given), the ED50 in [1] is 3.1 mg/kg; in test [2], 29.7 mg/kg; in test [3], 50 mg/kg; in [4], 2.6 mg/kg; in test [5], 0.7 mg/kg; in [6], 4.4 mg/kg. The 50% effective dose (ED50) in test [7] is more than 50 mg/kg; in [8], 8.8 mg/kg; in [9] it was 4.4 mg/kg; in [10] it was more than 50 mg/kg.

Take `CC1N=C(c2ccccc2)c2cc(Cl)ccc2-n2cnnc21` (stereo not given): the ED50 in [1] is 3.7 mg/kg; in [2], 10.5 mg/kg; in test [3] it was more than 50 mg/kg; in test [4], 4.4 mg/kg; in test [5], 0.6 mg/kg; in test [6], 42 mg/kg. In addition, the median effective dose (ED50) in test [7] is more than 50 mg/kg; in test [8] it was more than 50 mg/kg; in test [9], 7.4 mg/kg; in test [10], more than 50 mg/kg.

With `Clc1ccc2c(c1)C(c1ccccc1)=NCc1nnc(Cl)n1-2`, the ED50 was 3.1 mg/kg in [1]; more than 50 mg/kg in test [2]; more than 50 mg/kg in test [3]; 4 mg/kg in test [4]; 3 mg/kg in test [5]; more than 50 mg/kg in test [6]. Moreover, the ED50 in test [7], in test [8], in test [9] and in [10] was more than 50 mg/kg throughout.

Consider `OCCN1CCN(c2nnc3n2-c2ccccc2C(c2ccccc2Cl)=NC3)CC1`, for which the ED50 is 3 mg/kg in test [1]; 2 mg/kg in [2]; more than 50 mg/kg in test [3]; 6 mg/kg in test [4]; 3 mg/kg in test [5]; 0.9 mg/kg in test [6]. For the same compound, the ED50 in [7] was more than 50 mg/kg; in [8], 30 mg/kg; in test [9], 40 mg/kg; in test [10] it was more than 50 mg/kg.

With `CCN1CCN(c2nnc3n2-c2ccccc2C(c2ccccc2Cl)=NC3)CC1`, the ED50 in test [1] was 2 mg/kg; in test [2], 2 mg/kg; in test [3] it was more than 50 mg/kg; in [4] it was 7 mg/kg; in test [5] it was more than 50 mg/kg; in test [6] it was 4 mg/kg. The median effective dose (ED50) in [7] was more than 50 mg/kg; in [8] it was 30 mg/kg; in test [9], 40 mg/kg; in [10], more than 50 mg/kg.

With `CN1CCN(c2nnc3n2-c2ccccc2C(c2ccccc2Cl)=NC3)CC1`, the ED50 is 6.2 mg/kg in test [1]; 0.2 mg/kg in test [2]; 4.4 mg/kg in [3]; more than 25 mg/kg in [4]; more than 25 mg/kg in [5]; 1.1 mg/kg in test [6]. Also, the median effective dose (ED50) in [7], in [8], in test [9] and in [10] was more than 25 mg/kg in each case.

`Clc1ccc2c(c1)C(c1ccccc1)=NCc1nnc(N3CCCC3)n1-2`: the ED50 in [1] is 4.5 mg/kg; in test [2], 40 mg/kg; in [3] it was more than 50 mg/kg; in test [4] it was 4 mg/kg; in test [5] it was 3 mg/kg; in test [6], more than 50 mg/kg. Further, the ED50 in test [7] is more than 50 mg/kg; in [8] it was more than 50 mg/kg; in test [9], 30 mg/kg; in test [10], more than 50 mg/kg.

Consider `CN(C)CCOc1nnc2n1-c1ccc(Cl)cc1C(c1ccccc1)=NC2`, for which the ED50 in test [1] was 2.2 mg/kg; in test [2], more than 50 mg/kg; in test [3], more than 50 mg/kg; in [4], 1.1 mg/kg; in [5] it was 0.2 mg/kg; in [6] it was 0.8 mg/kg. In addition, the ED50 is more than 50 mg/kg in test [7], more than 50 mg/kg in test [8], 25 mg/kg in test [9] and more than 50 mg/kg in test [10].

With `CN(C)CCSc1nnc2n1-c1ccc(Cl)cc1C(c1ccccc1)=NC2`, the ED50 in test [1] was 3.1 mg/kg; in test [2] it was more than 50 mg/kg; in test [3], more than 50 mg/kg; in test [4], 7.4 mg/kg; in [5], 1.6 mg/kg; in test [6], more than 50 mg/kg. In addition, the ED50 in [7], in test [8], in test [9] and in [10] was more than 50 mg/kg in each case.

Source of the values: ChEMBL document CHEMBL3244037, “6-Aryl-4H-s-triazolo[4,3-a][1,4]benzodiazepines. Influence of 1-substitution on pharmacological activity” (J Med Chem, 1979).
